Reference: patent publication US20240383900A1, “SUBSTITUTED PYRAZOLO [1,5-A]PYRIMIDINE-7-AMINE COMPOUNDS AS CDK INHIBITORS AND THEIR THERAPEUTIC USE” (Carrick Therapeutics Limited, priority 2021, published 2024)
Like-named read-outs stand apart in the source and are kept apart here.

How the values were obtained:
Cyclin K = Cyclin K (Homo sapiens (Human), UniProt O75909); test: Western blotting analysis of Cyclin K depletion in cell culture; assay type: cell-based; details: A673 cells, 1 μM test compound, 2 hours, absence and presence of 10 μM MLN4924
Protocol: A673 cells were incubated for 2 hours with of 1 μM compound in presence or in absence of 10 μM of the NAE (NEDD8 activating enzyme) inhibitor MLN4924 (Cell Signalling Technologies). Cells were washed 2× with cold Phosphate Buffered Saline (PBS, Sigma Aldrich), followed by the addition of lysis buffer for 15 minutes on ice before harvesting and centrifugation.
Protein content in the cell lysate was assessed by BCA assay (Thermo Fisher). Samples were then prepared with 4× Laemmlli Buffer (Bio-Rad) and heated to 95° C. for 5 minutes. Each sample was loaded onto a Mini-PROTEAN TGX Stain Free Gel (Bio-Rad) at 50 μg protein/well. SDS-PAGE was performed and then protein was transferred onto a PVDF membrane using a Trans-Blot® Turbo™ Midi PVDF Transfer Pack (Bio-Rad. Membranes were blocked in TBS-T (Invitrogen), 5% (w/v) milk powder (Marvel) overnight at 4° C.
Membranes were incubated with anti-CCNK antibody (rabbit) primary antibody (Abcam) and anti-GAPDH antibody (rabbit) in TBS-T for 2 hours. Membranes were then washed three times with TBS-T, before incubation secondary goat anti-rabbit HRP antibody (Cell Signalling Technologies) followed by 3× washing in TBS-T. Blots were imaged using a Chemidoc imager (Bio-Rad). Cyclin K depletion was measured as the observable drop in band intensity in compound treated samples relative to proteasome-inhibitor treated samples.
Cyclin K degradation was evaluated by Western blotting for cyclin K in A673 cells exposed to 1 μM test compound for 2 hours in the absence and presence of 10 μM MLN4924 (to inhibit proteosome activity).

A673 cells [1] = test: Cytotoxicity in A673 cells (Cell Titer Glo viability); assay type: cell-based; details: for IC50: Homo sapiens; for Ratio of Biochemical Potency:Cellular Potency: CDK12 IC50 / A673 IC50
In short: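 Cells plated at 1.2×10^5 per well in DMEM+10% FBS, 24 h, then compound series ± MLN4924 (30 nM final) in 0.1% DMSO for 72 h. Viability by Cell Titer Glo luminescence, normalised to vehicle (100%) and 0.1% Triton x-100 (0%); MLN4924 curves normalised to MLN4924-treated controls.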

A673 cells [2] = test: A673 cytotoxic potency shift in the presence of MLN4924 (cyclin K degrader activity); assay type: cell-based; details: for Cyclin K Degrader Activity (A673 potency shift + MLN4924): 30 nM MLN4924, 72 hours
Protocol: Inhibition of cell viability by test compounds was assessed in A673 cells (ATCC CRL-1598) and the compound mode of action was attributed to a “molecular-glue”/cyclin K-degradation mechanism by probing for a loss of compound potency in the presence of the NEDD8-activating enzyme inhibitor, MLN4924.
Cells were plated in 96-well plates at a density of […] viable cells per well in 200 μL fully supplemented growth medium (DMEM+10% heat inactivated foetal bovine serum) and incubated for 24 hours in standard tissue culture conditions. Compounds, including MLN4924, were solubilised in DMSO and then diluted in fully supplemented growth medium at 2× their final assay concentration such that the final DMSO concentration was 0.1%. Growth medium in the assay plates was replaced with 50 μL of growth medium containing 2×MLN4924 (final assay concentration: 30 nM, where tested) or vehicle only and 50 μL of growth medium containing a 2× compound concentration series or vehicle only such that each compound was at 1× final assay concentration in 100 μL.
Cells were then incubated for 72 hours in standard tissue culture conditions before viability was assessed using 50 μL Cell Titer Glo reagent (Promega) per well and luminescence measured on an EnVision plate reader. Data were normalised to vehicle control (100%) and cells treated with 0.1% Triton x-100 for 1 hour before viability measurement (0%; full cell kill). IC50 values were determined using a semi-logistic curve fit with parameters “top” fixed at 100% and “bottom” at or below 0%. Viability curves generated in the presence of MLN4924 were normalised and fixed to controls treated with MLN4924.

Human CDK12 wt/CycK = Human CDK12 wt/CycK (Homo sapiens (Human), UniProt Q9NYV4); test: Radiometric protein kinase assay (33PanQinase Activity Assay), CDK12; assay type: biochemical; details: for CDK7/CDK12: ratio of CDK7 IC50 to CDK12 IC50, greater than 1 indicates selectivity for CDK12
Chain of Human CDK12 wt/CycK (Q9NYV4 whole entry): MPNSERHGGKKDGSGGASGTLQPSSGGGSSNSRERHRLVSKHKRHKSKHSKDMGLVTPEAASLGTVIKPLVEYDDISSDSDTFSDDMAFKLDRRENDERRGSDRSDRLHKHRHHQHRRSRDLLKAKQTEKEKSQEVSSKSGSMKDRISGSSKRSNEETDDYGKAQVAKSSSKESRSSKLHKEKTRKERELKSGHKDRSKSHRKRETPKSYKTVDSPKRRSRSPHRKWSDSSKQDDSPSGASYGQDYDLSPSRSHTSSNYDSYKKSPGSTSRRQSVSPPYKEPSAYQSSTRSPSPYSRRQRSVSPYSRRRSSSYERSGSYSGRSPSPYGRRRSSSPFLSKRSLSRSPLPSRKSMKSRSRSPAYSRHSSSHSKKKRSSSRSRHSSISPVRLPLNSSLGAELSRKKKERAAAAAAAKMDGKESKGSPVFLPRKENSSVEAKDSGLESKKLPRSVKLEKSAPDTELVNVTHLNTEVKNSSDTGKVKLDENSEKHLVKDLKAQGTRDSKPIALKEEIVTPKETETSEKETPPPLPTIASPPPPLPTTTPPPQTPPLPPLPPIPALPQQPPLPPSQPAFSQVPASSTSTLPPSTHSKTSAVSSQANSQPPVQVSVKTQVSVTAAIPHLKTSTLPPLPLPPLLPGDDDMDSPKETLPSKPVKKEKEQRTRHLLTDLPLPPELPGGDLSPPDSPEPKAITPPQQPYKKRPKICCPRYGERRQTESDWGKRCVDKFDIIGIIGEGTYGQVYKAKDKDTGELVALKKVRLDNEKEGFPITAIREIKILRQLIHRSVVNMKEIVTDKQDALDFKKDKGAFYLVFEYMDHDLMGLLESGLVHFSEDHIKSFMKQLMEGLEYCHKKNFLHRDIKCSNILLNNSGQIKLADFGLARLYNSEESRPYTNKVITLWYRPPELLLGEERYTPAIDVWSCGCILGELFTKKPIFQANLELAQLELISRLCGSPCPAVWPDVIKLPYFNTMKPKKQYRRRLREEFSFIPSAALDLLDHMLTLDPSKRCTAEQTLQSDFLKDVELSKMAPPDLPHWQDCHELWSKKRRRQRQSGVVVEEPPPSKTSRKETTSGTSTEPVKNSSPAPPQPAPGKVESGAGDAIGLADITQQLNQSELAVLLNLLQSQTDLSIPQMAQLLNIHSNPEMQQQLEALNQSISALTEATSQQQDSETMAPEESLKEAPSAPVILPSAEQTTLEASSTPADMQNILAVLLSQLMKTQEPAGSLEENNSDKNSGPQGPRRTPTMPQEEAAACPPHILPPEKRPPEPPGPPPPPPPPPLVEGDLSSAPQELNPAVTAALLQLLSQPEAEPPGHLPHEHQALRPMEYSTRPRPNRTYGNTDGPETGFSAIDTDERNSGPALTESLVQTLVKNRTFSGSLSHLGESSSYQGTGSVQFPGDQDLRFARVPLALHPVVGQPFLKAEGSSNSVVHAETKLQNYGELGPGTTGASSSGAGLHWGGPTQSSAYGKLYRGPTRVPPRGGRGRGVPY
Chain of Human CDK12 wt/CycK (O75909 whole entry partner): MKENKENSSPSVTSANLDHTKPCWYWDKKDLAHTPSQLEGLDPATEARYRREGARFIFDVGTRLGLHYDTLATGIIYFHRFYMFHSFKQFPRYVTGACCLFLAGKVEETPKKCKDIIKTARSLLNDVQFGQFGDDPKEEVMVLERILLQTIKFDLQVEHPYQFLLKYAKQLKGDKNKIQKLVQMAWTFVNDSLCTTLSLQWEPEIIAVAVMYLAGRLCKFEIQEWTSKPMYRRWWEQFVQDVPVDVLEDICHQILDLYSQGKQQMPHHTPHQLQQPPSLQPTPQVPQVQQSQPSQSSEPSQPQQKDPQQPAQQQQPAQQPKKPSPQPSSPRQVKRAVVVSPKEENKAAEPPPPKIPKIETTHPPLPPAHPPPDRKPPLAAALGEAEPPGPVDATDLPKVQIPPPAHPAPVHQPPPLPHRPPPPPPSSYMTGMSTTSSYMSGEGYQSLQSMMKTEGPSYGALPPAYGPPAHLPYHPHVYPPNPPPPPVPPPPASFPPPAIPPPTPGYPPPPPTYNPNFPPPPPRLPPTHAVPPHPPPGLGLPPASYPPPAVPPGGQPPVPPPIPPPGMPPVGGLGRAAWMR
In short: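 Radiometric 33P assay: ATP, test compound (in 10% DMSO) and premixed substrate/enzyme incubated 60 min at 30 °C, stopped with 2% H3PO4. 33Pi incorporation counted by scintillation; least-squares curve fit.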

Human CDK7/CycH/MAT1 = Human CDK7/CycH/MAT1 (Homo sapiens (Human), UniProt P50613); test: Radiometric protein kinase assay (33PanQinase Activity Assay), CDK7; assay type: biochemical; details: ATP 3 μM
Chain of Human CDK7/CycH/MAT1 (P50613 whole entry): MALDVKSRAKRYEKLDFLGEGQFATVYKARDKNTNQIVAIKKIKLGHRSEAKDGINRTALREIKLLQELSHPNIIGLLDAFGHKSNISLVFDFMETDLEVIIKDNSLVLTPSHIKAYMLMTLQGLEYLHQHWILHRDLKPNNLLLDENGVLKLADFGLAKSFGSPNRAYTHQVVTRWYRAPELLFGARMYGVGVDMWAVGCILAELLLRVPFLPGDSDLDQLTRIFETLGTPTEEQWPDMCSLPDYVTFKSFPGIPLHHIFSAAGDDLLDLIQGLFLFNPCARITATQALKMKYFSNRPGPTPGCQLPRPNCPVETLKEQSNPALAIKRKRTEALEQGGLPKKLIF
Chain of Human CDK7/CycH/MAT1 (P51946 whole entry partner): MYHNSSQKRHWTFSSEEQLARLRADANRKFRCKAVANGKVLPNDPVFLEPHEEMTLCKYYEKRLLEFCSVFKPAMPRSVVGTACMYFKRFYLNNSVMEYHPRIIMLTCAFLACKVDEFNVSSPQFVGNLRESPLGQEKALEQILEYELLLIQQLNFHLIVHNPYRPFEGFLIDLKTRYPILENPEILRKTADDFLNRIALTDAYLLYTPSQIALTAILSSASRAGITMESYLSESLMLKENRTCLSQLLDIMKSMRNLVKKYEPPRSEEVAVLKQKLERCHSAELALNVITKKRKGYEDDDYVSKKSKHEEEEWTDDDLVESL
Chain of Human CDK7/CycH/MAT1 (P51948 whole entry partner): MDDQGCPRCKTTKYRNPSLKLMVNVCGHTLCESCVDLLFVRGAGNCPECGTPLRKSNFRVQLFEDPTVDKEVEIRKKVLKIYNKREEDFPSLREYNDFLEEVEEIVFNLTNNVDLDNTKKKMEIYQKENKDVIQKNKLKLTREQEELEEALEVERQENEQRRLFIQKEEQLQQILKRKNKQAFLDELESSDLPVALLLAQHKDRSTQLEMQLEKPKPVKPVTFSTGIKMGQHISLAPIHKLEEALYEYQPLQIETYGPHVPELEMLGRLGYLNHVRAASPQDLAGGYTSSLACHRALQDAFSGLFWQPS

[3] = A673, read-out: Cellular Potency IC50 (nM) (in A673 cells)
[4] = A673 cells, 72 hours, read-out: A673 IC50
[5] = ATP 0.3 μM, read-out: CDK12 IC50
[6] = read-out: CKD12 Biochemical Potency IC50

SMILES | Cyclin K degradation by Western blotting (Cyclin K) | IC50 (A673 cells [1]; [3]) | IC50 (A673 cells [1]; [4]) | Change of cytotoxic potency in the presence of MLN4924 (A673 cells [2]; 72 hours, presence and absence of 30 nM MLN4924) | IC50 (Human CDK12 wt/CycK; [5]) | CDK7/CDK12 (Human CDK12 wt/CycK) | IC50 (Human CDK12 wt/CycK; [6]) | IC50 (Human CDK7/CycH/MAT1) | Ratio of Biochemical Potency:Cellular Potency (A673 cells [1]) | Cyclin K Degrader Activity (A673 potency shift + MLN4924) (A673 cells [2])
CC[C@H](CO)Nc1nc(NCc2ccc(-c3ccccn3)cc2)c2ncn(C(C)C)c2n1 [CR8, reference compound] | did cause proteosomal dependent degradation of Cyclin K | 84.5 nM | 84.5 nM | a decrease in potency | – | – | – | – | – | –
c1ccc(-c2ccc(CNc3cc(O[C@H]4CCCNC4)nc4c(C5CC5)cnn34)cc2)nc1 [PPA-064] | – | 1.2 nM | 1.2 nM | – | 0.018 µM | 14.9 | 0.018 µM | 0.268 µM | 15.00 | +++ (>5 fold change.)
c1ccc(-c2ccc(CNc3cc(O[C@H]4CCNC4)nc4c(C5CC5)cnn34)cc2)nc1 [PPA-065] | – | 3.2 nM | 3.2 nM | – | 0.029 µM | 9.8 | 0.029 µM | 0.284 µM | 9.06 | +++ (>5 fold change.)
CCc1cnn2c(NCc3ccc(-c4ccccc4)cc3F)cc(NC[C@H]3CCNC[C@@H]3O)nc12 [PPA-069] | – | 10.5 nM | 10.5 nM | – | 0.122 µM | 2.2 | 0.122 µM | 0.267 µM | 11.62 | ++ (>2 and ≤5 fold change.)
N#Cc1cnn2c(NCc3ccc(-c4ccccc4)cc3F)cc(NC[C@H]3CCNC[C@@H]3O)nc12 [PPA-070] | – | 5.3 nM | 5.3 nM | – | 0.107 µM | 5.3 | 0.107 µM | 0.562 µM | 20.19 | +++ (>5 fold change.)
N#Cc1cnn2c(NCc3ccc(-c4ccccc4)cc3F)cc(N[C@H]3CCNC3)nc12 [PPA-071] | – | 1.4 nM | 1.4 nM | – | 0.04 µM | 38.8 | 0.04 µM | 1.55 µM | 28.57 | +++ (>5 fold change.)
Fc1cc(-c2ccccn2)ccc1CNc1cc(N[C@H]2CCNC2)nc2c(C3CC3)cnn12 [PPA-072] | – | 0.8 nM | 0.8 nM | – | 0.034 µM | 29.4 | 0.034 µM | 1 µM | 42.50 | +++ (>5 fold change.)
c1ccc(-c2ccc(CNc3cc(N4CC5CC(C4)N5)nc4c(C5CC5)cnn34)cc2)nc1 [PPA-080] | – | 12.6 nM | 12.6 nM | – | 0.152 µM | 8.0 | 0.152 µM | 1.21 µM | 12.06 | +++ (>5 fold change.)
N#Cc1cnn2c(NCc3ccc(-c4ccccc4)cc3)cc(N[C@H]3CCNC3)nc12 [PPA-085] | – | 1.3 nM | 1.3 nM | – | 0.023 µM | 29.3 | 0.023 µM | 0.675 µM | 17.69 | ++ (>2 and ≤5 fold change.)
N#Cc1cnn2c(NCc3ccc(-c4ccccn4)cc3)cc(N[C@H]3CCNC3)nc12 [PPA-086] | – | 0.9 nM | 0.9 nM | – | 0.011 µM | 37.9 | 0.011 µM | 0.417 µM | 12.22 | +++ (>5 fold change.)
CO[C@H]1CNCC[C@@H]1CNc1cc(NCc2ccc(-c3ccccn3)cc2)n2ncc(C3CC3)c2n1 [PPA-087] | – | 8.7 nM | 8.7 nM | – | 0.503 µM | 3.2 | 0.503 µM | 1.63 µM | 57.82 | +++ (>5 fold change.)
C1=C(c2cc(NCc3ccc(-c4ccccn4)cc3)n3ncc(C4CC4)c3n2)CNCC1 [PPA-088] | – | 2.5 nM | 2.5 nM | – | 0.06 µM | 12.7 | 0.06 µM | 0.762 µM | 24.00 | +++ (>5 fold change.)
c1cnc(-c2ccc(CNc3cc(N[C@H]4CCCNC4)nc4c(C5CC5)cnn34)cc2)nc1 [PPA-089] | – | 1.9 nM | 3.4 nM | – | 0.028 µM | 9.8 | 0.028 µM | 0.274 µM | 14.74 | +++ (>5 fold change.)
c1cnc(-c2ccc(CNc3cc(N[C@H]4CCNC4)nc4c(C5CC5)cnn34)cc2)nc1 [PPA-090] | – | 4.7 nM | 5.2 nM | – | 0.023 µM | 18.2 | 0.023 µM | 0.418 µM | 4.89 | +++ (>5 fold change.)
c1cnn(-c2ccc(CNc3cc(N[C@H]4CCNC4)nc4c(C5CC5)cnn34)cc2)c1 [PPA-091] | – | 7.6 nM | 10.3 nM | – | 0.382 µM | 8.0 | 0.382 µM | 3.07 µM | 50.26 | +++ (>5 fold change.)
N#Cc1cnn2c(NCc3ccc(-c4ccccn4)cc3)cc(N[C@H]3CCCNC3)nc12 [PPA-092] | – | 0.4 nM | 1 nM | – | 0.013 µM | 18.1 | 0.013 µM | 0.235 µM | 32.50 | +++ (>5 fold change.)
Clc1cnn2c(NCc3ccc(-c4ccccn4)cc3)cc(N[C@H]3CCCNC3)nc12 [PPA-093] | – | 3.2 nM | 1.7 nM | – | 0.031 µM | 7.2 | 0.031 µM | 0.222 µM | 9.69 | ++ (>2 and ≤5 fold change.)
CN(C)C/C=C/C(=O)Nc1ccc(C(=O)N2CCC[C@@H](Nc3ncc(Cl)c(-c4c[nH]c5ccccc45)n3)C2)cc1 [THZ-531, reference compound] | no protesomal dependent Cyclin K degradation | 210 nM | – | – | – | – | 0.16 µM | – | 0.74 | − (≤1 fold change.)
